Data published in BigSolDB 2.1.

C[C@@H]1O[C@@H](O[C@H]2[C@H](Oc3cc(O)c(C(=O)CCc4ccc(O)cc4)c(O)c3)O[C@H](CO)[C@@H](O)[C@@H]2O)[C@H](O)[C@H](O)[C@H]1O
solubility (mole fraction)
Settings	298.15 K	308.15 K	318.15 K	328.15 K	338.15 K
in ethyl acetate	0.00031	0.000369	0.000491	0.000668	0.000776
in water	2.13e-05	3.78e-05	7.12e-05	0.000166	0.000375
